From publication PMC6109843, “Novel Quinazolinone Inhibitors of ALK2 Flip between Alternate Binding Modes: Structure–Activity Relationship, Structural Characterization, Kinase Profiling, and Cellular Proof of Concept” (Journal of Medicinal Chemistry, 2018)

Legend:
Test in all cases: DiscoverX scanEDGE kinase panel
Format in all cases: binding
Details in all cases: Cmpd Conc 1000 nM, read-out: % Ctrl
[1] = target: T1, PRKCE (Homo sapiens, UniProt Q02156)
T1 construct: purchased DiscoverX (DiscoveRx) KINOMEscan scanEDGE / KdELECT
Excerpt: (§1) We hypothesized that inhibitors of the normal and flipped modes would display distinct selectivity profiles.
(§2) 1. 16 and 21 kinome selectivity data
(§3) (P – phosphorylated; nP – nonphosphorylated; % Ctrl values show the % of DNAEtagged
(§4) kinase which was not displaced from a solid supported ligand by a test compound relative to
(§5) untreated control, quantified by qPCR).
(§6) Please note: ALKs 1, 2, 3, 4, 5 and 6 are listed by their gene symbols: ACVRL1 (ALK1), ACVR1
(§7) (ALK2), BMPR1A (ALK3), ACVR1B (ALK4), TGFBR1 (ALK5) and BMPR1B (ALK6)
(§8) Cmpd DiscoverX Gene Symbol Entrez Gene Symbol % Ctrl Cmpd Conc (nM)

[2] = target: T2, AKT2 (Homo sapiens, UniProt P31751)
T2 construct: purchased DiscoverX (DiscoveRx) KINOMEscan scanEDGE / KdELECT
Excerpt: as §1, §2, §3, §4, §5, §6, §7, §8

[3] = target: T3, ABL1EP (Homo sapiens, UniProt P00519)
T3 construct: purchased DiscoverX (DiscoveRx) KINOMEscan scanEDGE / KdELECT
Excerpt: as §1, §2, §3, §4, §5, §6, §7, §8

[4] = target: T4, CSF1R (Homo sapiens, UniProt P07333)
T4 construct: purchased DiscoverX (DiscoveRx) KINOMEscan scanEDGE / KdELECT
Excerpt: as §1, §2, §3, §4, §5, §6, §7, §8

[5] = target: T5, BMPR1A (ALK3) (Homo sapiens, UniProt P36894)
T5 construct: purchased DiscoverX (DiscoveRx) KINOMEscan scanEDGE / KdELECT
T5 sequence (P36894 24-532): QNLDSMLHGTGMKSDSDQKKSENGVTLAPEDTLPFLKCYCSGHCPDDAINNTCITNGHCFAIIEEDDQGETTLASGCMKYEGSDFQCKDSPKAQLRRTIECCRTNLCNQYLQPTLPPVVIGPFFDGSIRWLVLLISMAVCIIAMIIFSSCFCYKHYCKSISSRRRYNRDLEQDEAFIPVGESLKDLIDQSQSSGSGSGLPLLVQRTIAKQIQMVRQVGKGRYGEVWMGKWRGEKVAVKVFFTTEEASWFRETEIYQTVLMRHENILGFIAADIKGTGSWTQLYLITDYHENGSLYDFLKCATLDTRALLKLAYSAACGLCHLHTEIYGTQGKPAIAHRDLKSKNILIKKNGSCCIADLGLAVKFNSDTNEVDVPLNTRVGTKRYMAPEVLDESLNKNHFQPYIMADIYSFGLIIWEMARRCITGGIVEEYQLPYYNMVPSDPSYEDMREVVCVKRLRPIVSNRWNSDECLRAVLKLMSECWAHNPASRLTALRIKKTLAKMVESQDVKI
Excerpt: as §1, §2, §3, §4, §5, §6, §7, §8

[6] = target: T6, ERBB2 (Homo sapiens, UniProt P04626)
T6 construct: purchased DiscoverX (DiscoveRx) KINOMEscan scanEDGE / KdELECT
Excerpt: as §1, §2, §3, §4, §5, §6, §7, §8

[7] = target: T7, CDK7 (Homo sapiens, UniProt P50613)
T7 construct: purchased DiscoverX (DiscoveRx) KINOMEscan scanEDGE / KdELECT
Excerpt: as §1, §2, §3, §4, §5, §6, §7, §8

[8] = target: T8, TRKA (Homo sapiens, UniProt P04629)
T8 construct: purchased DiscoverX (DiscoveRx) KINOMEscan scanEDGE / KdELECT
T8 sequence (P04629 33-796): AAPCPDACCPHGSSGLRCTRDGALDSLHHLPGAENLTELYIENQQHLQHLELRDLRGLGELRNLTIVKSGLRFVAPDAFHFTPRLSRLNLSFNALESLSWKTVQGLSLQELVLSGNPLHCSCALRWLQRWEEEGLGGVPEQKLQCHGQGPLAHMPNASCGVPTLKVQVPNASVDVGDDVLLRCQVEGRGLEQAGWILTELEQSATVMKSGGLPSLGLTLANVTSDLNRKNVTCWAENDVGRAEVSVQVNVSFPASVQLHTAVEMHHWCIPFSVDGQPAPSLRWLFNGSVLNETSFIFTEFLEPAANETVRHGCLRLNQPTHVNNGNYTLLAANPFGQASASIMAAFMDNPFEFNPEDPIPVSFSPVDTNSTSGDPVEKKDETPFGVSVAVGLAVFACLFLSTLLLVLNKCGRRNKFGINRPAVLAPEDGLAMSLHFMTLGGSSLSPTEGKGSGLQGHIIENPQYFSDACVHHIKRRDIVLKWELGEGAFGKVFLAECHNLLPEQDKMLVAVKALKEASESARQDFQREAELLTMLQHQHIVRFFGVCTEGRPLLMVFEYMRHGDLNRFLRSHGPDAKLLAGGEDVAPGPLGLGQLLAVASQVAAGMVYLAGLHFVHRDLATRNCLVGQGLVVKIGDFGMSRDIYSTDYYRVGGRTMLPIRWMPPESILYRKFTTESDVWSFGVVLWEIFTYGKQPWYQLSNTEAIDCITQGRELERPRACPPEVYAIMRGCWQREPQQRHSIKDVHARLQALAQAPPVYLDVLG
Excerpt: as §1, §2, §3, §4, §5, §6, §7, §8

[9] = target: T9, ACVR2B (Homo sapiens, UniProt Q13705)
T9 construct: purchased DiscoverX (DiscoveRx) KINOMEscan scanEDGE / KdELECT
Excerpt: as §1, §2, §3, §4, §5, §6, §7, §8

[10] = target: T10, PIM1 (Homo sapiens, UniProt P11309)
T10 construct: purchased DiscoverX (DiscoveRx) KINOMEscan scanEDGE / KdELECT
Excerpt: as §1, §2, §3, §4, §5, §6, §7, §8

[11] = target: T11, NEK7 (Homo sapiens, UniProt Q8TDX7)
T11 construct: purchased DiscoverX (DiscoveRx) KINOMEscan scanEDGE / KdELECT
Excerpt: as §1, §2, §3, §4, §5, §6, §7, §8

[12] = target: T12, RIOK2 (Homo sapiens, UniProt Q9BVS4)
T12 construct: purchased DiscoverX (DiscoveRx) KINOMEscan scanEDGE / KdELECT
Excerpt: as §1, §2, §3, §4, §5, §6, §7, §8

[13] = target: T13, BMPR2 (Homo sapiens, UniProt Q13873)
T13 construct: purchased DiscoverX (DiscoveRx) KINOMEscan scanEDGE / KdELECT
Excerpt: as §1, §2, §3, §4, §5, §6, §7, §8

[14] = target: T14, DCAMKL1 (Homo sapiens, UniProt O15075)
T14 construct: purchased DiscoverX (DiscoveRx) KINOMEscan scanEDGE / KdELECT
Excerpt: as §1, §2, §3, §4, §5, §6, §7, §8

[15] = target: T15, MARK3 (Homo sapiens, UniProt P27448)
T15 construct: purchased DiscoverX (DiscoveRx) KINOMEscan scanEDGE / KdELECT
Excerpt: as §1, §2, §3, §4, §5, §6, §7, §8

[16] = target: T16, CDK9 (Homo sapiens, UniProt P50750)
T16 construct: purchased DiscoverX (DiscoveRx) KINOMEscan scanEDGE / KdELECT
T16 sequence (P50750 whole entry): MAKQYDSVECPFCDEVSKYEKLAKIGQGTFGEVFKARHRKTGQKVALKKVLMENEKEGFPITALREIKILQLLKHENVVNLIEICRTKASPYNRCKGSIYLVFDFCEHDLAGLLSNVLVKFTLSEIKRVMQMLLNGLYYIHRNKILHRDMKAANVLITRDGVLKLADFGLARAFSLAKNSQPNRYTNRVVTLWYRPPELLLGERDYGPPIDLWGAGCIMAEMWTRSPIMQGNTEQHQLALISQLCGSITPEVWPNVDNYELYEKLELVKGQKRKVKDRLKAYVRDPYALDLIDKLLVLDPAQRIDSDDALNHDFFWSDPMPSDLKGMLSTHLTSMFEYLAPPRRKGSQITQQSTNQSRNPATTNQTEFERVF
Excerpt: as §1, §2, §3, §4, §5, §6, §7, §8

[17] = target: T17, AURKA (Homo sapiens, UniProt O14965)
T17 construct: purchased DiscoverX (DiscoveRx) KINOMEscan scanEDGE / KdELECT
Excerpt: as §1, §2, §3, §4, §5, §6, §7, §8

[18] = target: T18, CHEK1 (Homo sapiens, UniProt O14757)
T18 construct: purchased DiscoverX (DiscoveRx) KINOMEscan scanEDGE / KdELECT
Excerpt: as §1, §2, §3, §4, §5, §6, §7, §8

[19] = target: T19, CDK3 (Homo sapiens, UniProt Q00526)
T19 construct: purchased DiscoverX (DiscoveRx) KINOMEscan scanEDGE / KdELECT
Excerpt: as §1, §2, §3, §4, §5, §6, §7, §8

[20] = target: T20, CDK11 (Homo sapiens, UniProt Q9BWU1)
T20 construct: purchased DiscoverX (DiscoveRx) KINOMEscan scanEDGE / KdELECT
Excerpt: as §1, §2, §3, §4, §5, §6, §7, §8

[21] = target: T21, PAK4 (Homo sapiens, UniProt O96013)
T21 construct: purchased DiscoverX (DiscoveRx) KINOMEscan scanEDGE / KdELECT
Excerpt: as §1, §2, §3, §4, §5, §6, §7, §8

[22] = target: T22, MAP3K4 (Homo sapiens, UniProt Q9Y6R4)
T22 construct: purchased DiscoverX (DiscoveRx) KINOMEscan scanEDGE / KdELECT
Excerpt: as §1, §2, §3, §4, §5, §6, §7, §8

[23] = target: T23, KIT(V559D,T670I) (Homo sapiens, UniProt P10721, T670I/V559D)
T23 construct: purchased DiscoverX (DiscoveRx) KINOMEscan scanEDGE / KdELECT
Excerpt: as §1, §2, §3, §4, §5, §6, §7, §8

[24] = target: T24, TIE2 (Homo sapiens, UniProt Q02763)
T24 construct: purchased DiscoverX (DiscoveRx) KINOMEscan scanEDGE / KdELECT
Excerpt: as §1, §2, §3, §4, §5, §6, §7, §8

[25] = target: T25, IKKEalpha (Homo sapiens, UniProt O15111)
T25 construct: purchased DiscoverX (DiscoveRx) KINOMEscan scanEDGE / KdELECT
T25 sequence (O15111 whole entry): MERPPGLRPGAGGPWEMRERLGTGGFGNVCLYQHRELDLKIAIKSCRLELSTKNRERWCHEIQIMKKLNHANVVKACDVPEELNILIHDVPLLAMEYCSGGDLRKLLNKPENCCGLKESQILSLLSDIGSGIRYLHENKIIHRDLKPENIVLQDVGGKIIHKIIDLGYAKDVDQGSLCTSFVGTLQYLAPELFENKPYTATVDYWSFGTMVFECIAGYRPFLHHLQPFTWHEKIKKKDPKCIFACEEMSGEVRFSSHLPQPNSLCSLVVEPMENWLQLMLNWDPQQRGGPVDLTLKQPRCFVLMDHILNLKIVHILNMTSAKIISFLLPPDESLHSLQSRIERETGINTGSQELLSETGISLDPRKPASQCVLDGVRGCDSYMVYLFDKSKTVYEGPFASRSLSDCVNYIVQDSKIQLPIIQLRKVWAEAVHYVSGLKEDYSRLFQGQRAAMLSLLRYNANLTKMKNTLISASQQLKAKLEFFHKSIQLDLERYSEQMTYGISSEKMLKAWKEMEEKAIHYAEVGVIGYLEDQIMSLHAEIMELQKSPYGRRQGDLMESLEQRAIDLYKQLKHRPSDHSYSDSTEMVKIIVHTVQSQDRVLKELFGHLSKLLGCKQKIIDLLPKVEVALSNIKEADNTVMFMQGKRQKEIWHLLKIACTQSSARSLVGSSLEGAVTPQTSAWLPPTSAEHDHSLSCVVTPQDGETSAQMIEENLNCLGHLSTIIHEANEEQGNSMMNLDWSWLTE
Excerpt: as §1, §2, §3, §4, §5, §6, §7, §8

[26] = target: T26, FAK (Homo sapiens, UniProt Q05397)
T26 construct: purchased DiscoverX (DiscoveRx) KINOMEscan scanEDGE / KdELECT
Excerpt: as §1, §2, §3, §4, §5, §6, §7, §8

[27] = target: T27, PLK3 (Homo sapiens, UniProt Q9H4B4)
T27 construct: purchased DiscoverX (DiscoveRx) KINOMEscan scanEDGE / KdELECT
Excerpt: as §1, §2, §3, §4, §5, §6, §7, §8

[28] = target: T28, MAPKAPK2 (Homo sapiens, UniProt P49137)
T28 construct: purchased DiscoverX (DiscoveRx) KINOMEscan scanEDGE / KdELECT
Excerpt: as §1, §2, §3, §4, §5, §6, §7, §8

[29] = target: T29, CSNK1D (Homo sapiens, UniProt P48730)
T29 construct: purchased DiscoverX (DiscoveRx) KINOMEscan scanEDGE / KdELECT
T29 sequence (P48730 whole entry): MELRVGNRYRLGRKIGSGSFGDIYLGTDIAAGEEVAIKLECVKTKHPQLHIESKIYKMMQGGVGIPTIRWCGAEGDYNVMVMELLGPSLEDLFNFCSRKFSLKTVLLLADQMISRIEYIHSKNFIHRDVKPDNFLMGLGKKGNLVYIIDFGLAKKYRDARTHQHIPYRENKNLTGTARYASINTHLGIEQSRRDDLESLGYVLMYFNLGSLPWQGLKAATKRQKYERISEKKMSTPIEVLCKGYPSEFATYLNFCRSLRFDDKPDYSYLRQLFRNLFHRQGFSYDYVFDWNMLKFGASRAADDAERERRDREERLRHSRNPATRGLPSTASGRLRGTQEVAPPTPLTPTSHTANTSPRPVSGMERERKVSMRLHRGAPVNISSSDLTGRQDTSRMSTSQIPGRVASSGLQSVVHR
Excerpt: as §1, §2, §3, §4, §5, §6, §7, §8

[30] = target: T30, EGFR (Homo sapiens, UniProt P00533)
T30 construct: purchased DiscoverX (DiscoveRx) KINOMEscan scanEDGE / KdELECT
Excerpt: as §1, §2, §3, §4, §5, §6, §7, §8

[31] = target: T31, PIK3CG (Homo sapiens, UniProt P48736)
T31 construct: purchased DiscoverX (DiscoveRx) KINOMEscan scanEDGE / KdELECT
T31 sequence (P48736 whole entry): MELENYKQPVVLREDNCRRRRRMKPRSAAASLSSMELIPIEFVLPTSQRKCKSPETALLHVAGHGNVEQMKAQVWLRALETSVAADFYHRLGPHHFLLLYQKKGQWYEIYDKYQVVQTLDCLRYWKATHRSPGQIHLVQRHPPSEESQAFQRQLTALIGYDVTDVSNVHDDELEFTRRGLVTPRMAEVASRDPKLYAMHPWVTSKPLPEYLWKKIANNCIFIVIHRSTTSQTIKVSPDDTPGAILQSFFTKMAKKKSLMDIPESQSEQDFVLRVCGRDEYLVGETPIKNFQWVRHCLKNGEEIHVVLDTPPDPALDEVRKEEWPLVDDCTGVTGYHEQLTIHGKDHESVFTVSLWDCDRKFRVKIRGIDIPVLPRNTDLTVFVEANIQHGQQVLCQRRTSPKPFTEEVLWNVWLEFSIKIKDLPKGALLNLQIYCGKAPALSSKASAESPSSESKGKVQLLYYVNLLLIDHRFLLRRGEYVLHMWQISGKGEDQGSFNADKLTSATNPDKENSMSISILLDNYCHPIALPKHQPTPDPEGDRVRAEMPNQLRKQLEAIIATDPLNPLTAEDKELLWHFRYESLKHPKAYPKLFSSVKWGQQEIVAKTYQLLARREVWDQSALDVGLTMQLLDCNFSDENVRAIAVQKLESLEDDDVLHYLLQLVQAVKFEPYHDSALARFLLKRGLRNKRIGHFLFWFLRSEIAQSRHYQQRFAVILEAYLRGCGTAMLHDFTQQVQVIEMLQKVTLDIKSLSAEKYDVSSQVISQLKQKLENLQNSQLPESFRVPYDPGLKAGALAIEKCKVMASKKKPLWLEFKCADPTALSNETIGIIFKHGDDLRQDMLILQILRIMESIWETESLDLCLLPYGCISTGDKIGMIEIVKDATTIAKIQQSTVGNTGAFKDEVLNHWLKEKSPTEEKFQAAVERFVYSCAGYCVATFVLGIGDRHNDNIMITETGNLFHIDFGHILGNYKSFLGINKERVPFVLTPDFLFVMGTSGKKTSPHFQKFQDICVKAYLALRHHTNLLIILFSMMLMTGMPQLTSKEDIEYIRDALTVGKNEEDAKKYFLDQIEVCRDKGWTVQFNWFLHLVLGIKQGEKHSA
Excerpt: as §1, §2, §3, §4, §5, §6, §7, §8

[32] = target: T32, MEK2 (Homo sapiens, UniProt P36507)
T32 construct: purchased DiscoverX (DiscoveRx) KINOMEscan scanEDGE / KdELECT
Excerpt: as §1, §2, §3, §4, §5, §6, §7, §8

[33] = target: T33, p38Ebeta (Homo sapiens, UniProt Q15759)
T33 construct: purchased DiscoverX (DiscoveRx) KINOMEscan scanEDGE / KdELECT
T33 sequence (Q15759 whole entry): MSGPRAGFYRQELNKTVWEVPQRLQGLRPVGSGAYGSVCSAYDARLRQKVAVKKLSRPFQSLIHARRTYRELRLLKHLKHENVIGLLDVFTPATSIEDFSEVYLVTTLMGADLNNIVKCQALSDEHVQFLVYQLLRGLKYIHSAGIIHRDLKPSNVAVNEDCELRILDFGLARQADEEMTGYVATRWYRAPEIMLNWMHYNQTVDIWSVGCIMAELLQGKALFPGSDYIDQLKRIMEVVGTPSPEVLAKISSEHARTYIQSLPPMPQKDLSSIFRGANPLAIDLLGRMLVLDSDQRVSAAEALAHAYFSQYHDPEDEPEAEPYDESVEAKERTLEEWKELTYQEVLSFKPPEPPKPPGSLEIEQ
Excerpt: as §1, §2, §3, §4, §5, §6, §7, §8

[34] = target: T34, ABL1EnP (Homo sapiens, UniProt P00519)
T34 construct: purchased DiscoverX (DiscoveRx) KINOMEscan scanEDGE / KdELECT
Excerpt: as §1, §2, §3, §4, §5, §6, §7, §8

[35] = target: T35, PDGFRA (Homo sapiens, UniProt P16234)
T35 construct: purchased DiscoverX (DiscoveRx) KINOMEscan scanEDGE / KdELECT
Excerpt: as §1, §2, §3, §4, §5, §6, §7, §8

[36] = target: T36, ABL1(E255K)EP (Homo sapiens, UniProt P00519, E255K)
T36 construct: purchased DiscoverX (DiscoveRx) KINOMEscan scanEDGE / KdELECT
Excerpt: as §1, §2, §3, §4, §5, §6, §7, §8

[37] = target: T37, MKNK2 (Homo sapiens, UniProt Q9HBH9)
T37 construct: purchased DiscoverX (DiscoveRx) KINOMEscan scanEDGE / KdELECT
Excerpt: as §1, §2, §3, §4, §5, §6, §7, §8

[38] = target: T38, VEGFR2 (Homo sapiens, UniProt P35968)
T38 construct: purchased DiscoverX (DiscoveRx) KINOMEscan scanEDGE / KdELECT
Excerpt: as §1, §2, §3, §4, §5, §6, §7, §8

[39] = target: T39, ERK1 (Homo sapiens, UniProt P27361)
T39 construct: purchased DiscoverX (DiscoveRx) KINOMEscan scanEDGE / KdELECT
Excerpt: as §1, §2, §3, §4, §5, §6, §7, §8

[40] = target: T40, YANK3 (Homo sapiens, UniProt Q86UX6)
T40 construct: purchased DiscoverX (DiscoveRx) KINOMEscan scanEDGE / KdELECT
T40 sequence (Q86UX6 whole entry): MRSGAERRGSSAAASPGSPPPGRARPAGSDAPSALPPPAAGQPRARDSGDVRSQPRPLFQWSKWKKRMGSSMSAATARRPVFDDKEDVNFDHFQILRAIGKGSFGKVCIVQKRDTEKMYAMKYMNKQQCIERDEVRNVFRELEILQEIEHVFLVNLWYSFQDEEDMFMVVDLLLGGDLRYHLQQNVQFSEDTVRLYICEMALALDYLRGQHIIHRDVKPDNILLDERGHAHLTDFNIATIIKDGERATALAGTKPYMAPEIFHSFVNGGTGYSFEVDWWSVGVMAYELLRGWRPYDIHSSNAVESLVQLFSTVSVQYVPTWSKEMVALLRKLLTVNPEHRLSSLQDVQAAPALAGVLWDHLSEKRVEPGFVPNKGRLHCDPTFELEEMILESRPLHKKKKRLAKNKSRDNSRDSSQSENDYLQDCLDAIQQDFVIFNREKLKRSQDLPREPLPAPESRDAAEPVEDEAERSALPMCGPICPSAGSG
Excerpt: as §1, §2, §3, §4, §5, §6, §7, §8

`Cc1nc2ccc(-c3ccnc4ccccc34)c(C)c2c(=O)[nH]1` [compound 21, 2,5-Dimethyl-6-(quinolin-4-yl)quinazolin-4(3H)-one] showed a remaining binding at 1 µM [1] of 91%, a remaining binding at 1 µM [2] of 93% and a remaining binding at 1 µM [3] of 97%. The remaining binding at 1 µM [4] was 95%, the remaining binding at 1 µM [5] was 65% and the remaining binding at 1 µM [6] was 100%. It also gave a remaining binding at 1 µM [7] of 100%, a remaining binding at 1 µM [8] of 93% and a remaining binding at 1 µM [9] of 67%. It also gave a remaining binding at 1 µM [10] of 60%, a remaining binding at 1 µM [11] of 100% and a remaining binding at 1 µM [12] of 97%. For the same compound, the remaining binding at 1 µM [13] was 76%, the remaining binding at 1 µM [14] was 87% and the remaining binding at 1 µM [15] was 83%. It also gave a remaining binding at 1 µM [16] of 100%, a remaining binding at 1 µM [17] of 100% and a remaining binding at 1 µM [18] of 100%. The remaining binding at 1 µM [19] was 94%, the remaining binding at 1 µM [20] was 90% and the remaining binding at 1 µM [21] was 62%. It also gave a remaining binding at 1 µM [22] of 90%, a remaining binding at 1 µM [23] of 98% and a remaining binding at 1 µM [24] of 89%. It also gave a remaining binding at 1 µM [25] of 100%, a remaining binding at 1 µM [26] of 98% and a remaining binding at 1 µM [27] of 96%. For the same compound, the remaining binding at 1 µM [28] was 100%, the remaining binding at 1 µM [29] was 88% and the remaining binding at 1 µM [30] was 98%. The remaining binding at 1 µM [31] was 98%, the remaining binding at 1 µM [32] was 79% and the remaining binding at 1 µM [33] was 99%. It also gave a remaining binding at 1 µM [34] of 91%, a remaining binding at 1 µM [35] of 93% and a remaining binding at 1 µM [36] of 95%. The remaining binding at 1 µM [37] was 92%, the remaining binding at 1 µM [38] was 99% and the remaining binding at 1 µM [39] was 98%. The remaining binding at 1 µM [40] was 95%.
